According to patent publication US20040022861A1, “Process for production of nanoparticles and microparticles by spray freezing into liquid” (priority 2001, published 2004):
≈ marks a conversion by molar mass, not a printed value. Values belong to the molecule of their own block, whether it stands above or below them.

Experiments:
[1] = Particle size distribution of dry powders (time-of-flight); assay type: physicochemical
Description: (§1) An aliquot of 0.1 g bovine insulin was dissolved in 20 ml HCl (pH=2), the solution was then titrated by 0.1 N NaOH to pH 7.4. The feed solution was then atomized using an ISCO pump by spray freezing into liquid nitrogen. The nozzle used was polyetheretherketone tubing with a diameter of 63.5 μm. The flow rate was 14 ml/min at 4000 psi. The frozen particles were collected and dried in a tray lyophilizer.
The span index is used to described the polydispersity in a given particle size distribution and is defined as (D90-D10)/D50, where D10, D50, and D90 are the respective particle size at 10, 50, 90 percent cumulative percent undersize.

Dissolution study = assay type: physicochemical
From the text: “FeSSIF” means fed state simulated intestinal fluid prepared by a recipe known in the art. This media is used to simulate gastrointestinal conditions. FeSSIF is the dissolution media that the powders produced in the following examples are dispersed into to quantitate the amount of drug dissolved as a function of time.
(§2) Ethyl acetate/water or dichloromethane/water mixtures were used to produce o/w emulsions for SFL micronization, and a tetrahydrofuran/water mixture was used to formulate the feed solutions. Micronized SFL powders were characterized by x-ray diffraction, surface area, scanning and transmission electron microscopy, contact angle and dissolution (SLS 0.75%/Tris 1.21% media).

[2] = Contact angle against dissolution media (SLS/Tris); assay type: physicochemical
From the text: as §2

[3] = BET specific surface area; assay type: physicochemical
From the text: The microparticles obtained were discrete and compact with almost spherical shape. […] The protein/polymer ratio has a strong effect on the entrapment efficiency and loading degree of the incorporated protein. The entrapment efficiency was high for all investigated biodegradable polymers. High polymer concentration yielded high entrapment efficiency for all observed biodegradable polymers and is illustrated at FIG. 6. Scanning Electron Micrographs (SEM) were taken of microparticles prepared by the following conditions: […] An adsorption isotherm derived by S. Brunaure, P. H. Emmett, and E.

[4] = Insulin aggregation: covalent insulin dimer (size exclusion HPLC); assay type: physicochemical; conditions: for percentage of covalent insulin dimer in the samples: stored at −4° C.
Description: as §1, with “lyophilizer. The resulting particles were highly porous. […] The SFL process decreased the level of covalent insulin dimer (Table 3). The mean particle size diameter as determined by time-of-flight measurement was 5.06 microns. SEM photographs reveal that the particle is an aggregate composed of small domains of insulin.” for “lyophilizer.”
(§3) The SFL insulin powder was prepared according to the procedure outlined in Example 1 with same formulation. The SFL insulin powder was stored at −4° C. The samples were taken out at 6, 12 and 24 weeks.
(§4) The products were characterized by different techniques. […] The median aerodynamic particle size was 5.06 μm.

[5] = Chemical stability of insulin: A-21 desamido insulin level (RP-HPLC); assay type: physicochemical; conditions: for percentage of A-21 desamido in the samples: stored at −4° C.
Description: as §1, with “lyophilizer. The resulting particles were highly porous. […] The SFL process decreased the level of covalent insulin dimer (Table 3). The mean particle size diameter as determined by time-of-flight measurement was 5.06 microns. SEM photographs reveal that the particle is an aggregate composed of small domains of insulin.” for “lyophilizer.”
as §3, §4

[6] = cited from earlier work

Molecule: C#C[C@]1(O)CC[C@H]2[C@@H]3CCC4=Cc5oncc5C[C@]4(C)[C@H]3CC[C@@]21C [Danazol]
M 10(μm) ([1]; dry powders, Table 14): 7.28 μm
M 90(μm) ([1]; dry powders, Table 14): 51.78 μm
M 50(μm) ([1]; dry powders, Table 14 and text Example 30): 23.10 μm
danazol dissolved (Dissolution study; FeSSIF media, 60 minutes): 21%
danazol dissolved (Dissolution study; SLS 0.75%/Tris 1.21% media, 5 minutes): Approximately 53%
danazol dissolved (Dissolution study; SLS 0.75%/Tris 1.21% media, 60 minutes): about 88%
Average Contact Angle (S.D.) ([2]; listed as Bulk Danazol): 64.3 (1.1)^2 °
Average Contact Angle (S.D.) ([2]; listed as bulk micronized danazol): 64.3 °
BET specific surface area ([3]; Examples 4, 5, 8): 0.52 m2/g
Specific Surface Area (m^2/g) ([3]; Table 14 and text Example 30): 0.52 m^2/g

Molecule: bovine insulin [Bulk insulin]
Covalent Insulin Dimer (percent) ([4]; Table 3): 0.25%
percentage of covalent insulin dimer in the samples ([4]; 12 weeks): 1.18 percentage
percentage of covalent insulin dimer in the samples ([4]; 24 weeks): 1.15 percentage
percentage of covalent insulin dimer in the samples ([4]; Initial): 0.5 percentage
Mean Particle Size (μm) ([1]; Table 3): 14.24 μm
A-21 desamido insulin (percent) ([5]; Table 3): 3.03%
percentage of A-21 desamido in the samples ([5]; 12 weeks): 2.61 percentage
percentage of A-21 desamido in the samples ([5]; 24 weeks): 2.72 percentage
percentage of A-21 desamido in the samples ([5]; Initial): 2.46 percentage

Span Index ([1]; (D90-D10)/D50): 2.94
D10 (μm) ([1]; time-of-flight, Table 10): 15.56 μm
D50 (μm) ([1]; time-of-flight, Table 10): 39.70 μm
D90 (μm) ([1]; time-of-flight, Table 10): 132.33 μm
mean particle diameter ([1]; time-of-flight, text Example 8): 39.70 μm
CBZ dissolved in water (Dissolution study; water, within 10 minutes): about 4%
Molecule: NC(=O)N1c2ccccc2C=Cc2ccccc21 [CBZ, carbamazepine]
aqueous solubility [6]: 61 µg/mL (≈ 258 µM)
